{"source": "ChEMBL document CHEMBL5291721", "about": "“A preclinical secondary pharmacology resource illuminates target-adverse drug reaction associations of marketed drugs” (Nat Commun, 2023); further: assay procedure not described here", "key": {"Acetylcholinesterase": {"target": "Acetylcholinesterase (Homo sapiens, UniProt P22303)", "sequence (P22303 whole entry)": "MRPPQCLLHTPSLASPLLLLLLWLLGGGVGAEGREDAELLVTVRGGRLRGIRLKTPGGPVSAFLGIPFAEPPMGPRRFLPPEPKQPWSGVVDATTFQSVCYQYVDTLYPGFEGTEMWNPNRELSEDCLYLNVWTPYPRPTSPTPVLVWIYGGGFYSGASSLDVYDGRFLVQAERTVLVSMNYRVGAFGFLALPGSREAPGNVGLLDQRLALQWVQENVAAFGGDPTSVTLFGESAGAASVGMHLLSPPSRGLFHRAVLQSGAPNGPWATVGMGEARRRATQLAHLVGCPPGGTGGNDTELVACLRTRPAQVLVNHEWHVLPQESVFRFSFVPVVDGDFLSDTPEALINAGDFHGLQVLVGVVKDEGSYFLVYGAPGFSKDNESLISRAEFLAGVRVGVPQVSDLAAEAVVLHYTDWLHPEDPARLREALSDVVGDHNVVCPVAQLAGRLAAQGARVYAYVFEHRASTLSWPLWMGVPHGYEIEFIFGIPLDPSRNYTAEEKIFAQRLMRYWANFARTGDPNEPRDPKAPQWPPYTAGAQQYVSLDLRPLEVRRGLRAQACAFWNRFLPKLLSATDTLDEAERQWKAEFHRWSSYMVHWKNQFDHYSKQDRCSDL", "type": "functional"}, "Adenosine receptor A3": {"target": "T1, Adenosine receptor A3 (Homo sapiens, UniProt P0DMS8)", "T1 sequence (P0DMS8 whole entry)": "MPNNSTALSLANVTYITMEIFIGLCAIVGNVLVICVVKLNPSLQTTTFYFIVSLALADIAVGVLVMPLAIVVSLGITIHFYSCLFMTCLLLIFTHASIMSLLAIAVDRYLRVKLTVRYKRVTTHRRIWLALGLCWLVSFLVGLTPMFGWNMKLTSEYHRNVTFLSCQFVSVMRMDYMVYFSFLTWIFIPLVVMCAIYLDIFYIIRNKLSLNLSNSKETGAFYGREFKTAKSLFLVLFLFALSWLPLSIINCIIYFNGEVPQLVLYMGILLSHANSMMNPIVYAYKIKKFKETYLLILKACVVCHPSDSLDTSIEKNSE"}, "Thromboxane A2 receptor": {"target": "T2, Thromboxane A2 receptor (Homo sapiens, UniProt P21731)", "T2 sequence (P21731 whole entry)": "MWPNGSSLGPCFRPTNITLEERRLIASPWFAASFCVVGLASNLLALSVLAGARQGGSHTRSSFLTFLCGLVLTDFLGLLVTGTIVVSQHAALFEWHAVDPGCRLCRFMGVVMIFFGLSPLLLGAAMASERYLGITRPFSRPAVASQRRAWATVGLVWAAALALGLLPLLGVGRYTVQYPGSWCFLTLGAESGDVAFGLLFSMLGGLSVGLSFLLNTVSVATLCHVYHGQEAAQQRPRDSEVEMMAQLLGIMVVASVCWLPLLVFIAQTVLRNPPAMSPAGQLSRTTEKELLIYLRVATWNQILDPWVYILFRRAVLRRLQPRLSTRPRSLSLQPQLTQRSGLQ"}, "D(3) dopamine receptor": {"target": "D(3) dopamine receptor (Homo sapiens, UniProt P35462)", "sequence (P35462 whole entry)": "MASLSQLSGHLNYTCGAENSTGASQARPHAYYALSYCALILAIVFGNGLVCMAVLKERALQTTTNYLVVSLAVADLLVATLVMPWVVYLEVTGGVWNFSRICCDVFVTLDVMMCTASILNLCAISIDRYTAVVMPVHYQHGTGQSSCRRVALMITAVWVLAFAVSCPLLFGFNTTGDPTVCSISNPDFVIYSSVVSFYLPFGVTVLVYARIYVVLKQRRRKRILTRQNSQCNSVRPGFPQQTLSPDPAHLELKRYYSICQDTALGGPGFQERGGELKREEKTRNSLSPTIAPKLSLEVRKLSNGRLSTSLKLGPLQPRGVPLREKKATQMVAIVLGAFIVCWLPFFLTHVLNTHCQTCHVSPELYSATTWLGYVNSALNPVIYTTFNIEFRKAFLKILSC"}, "[1]": {"target": "Voltage-gated inwardly rectifying potassium channel KCNH2 (Homo sapiens, UniProt Q12809)", "sequence (Q12809 whole entry)": "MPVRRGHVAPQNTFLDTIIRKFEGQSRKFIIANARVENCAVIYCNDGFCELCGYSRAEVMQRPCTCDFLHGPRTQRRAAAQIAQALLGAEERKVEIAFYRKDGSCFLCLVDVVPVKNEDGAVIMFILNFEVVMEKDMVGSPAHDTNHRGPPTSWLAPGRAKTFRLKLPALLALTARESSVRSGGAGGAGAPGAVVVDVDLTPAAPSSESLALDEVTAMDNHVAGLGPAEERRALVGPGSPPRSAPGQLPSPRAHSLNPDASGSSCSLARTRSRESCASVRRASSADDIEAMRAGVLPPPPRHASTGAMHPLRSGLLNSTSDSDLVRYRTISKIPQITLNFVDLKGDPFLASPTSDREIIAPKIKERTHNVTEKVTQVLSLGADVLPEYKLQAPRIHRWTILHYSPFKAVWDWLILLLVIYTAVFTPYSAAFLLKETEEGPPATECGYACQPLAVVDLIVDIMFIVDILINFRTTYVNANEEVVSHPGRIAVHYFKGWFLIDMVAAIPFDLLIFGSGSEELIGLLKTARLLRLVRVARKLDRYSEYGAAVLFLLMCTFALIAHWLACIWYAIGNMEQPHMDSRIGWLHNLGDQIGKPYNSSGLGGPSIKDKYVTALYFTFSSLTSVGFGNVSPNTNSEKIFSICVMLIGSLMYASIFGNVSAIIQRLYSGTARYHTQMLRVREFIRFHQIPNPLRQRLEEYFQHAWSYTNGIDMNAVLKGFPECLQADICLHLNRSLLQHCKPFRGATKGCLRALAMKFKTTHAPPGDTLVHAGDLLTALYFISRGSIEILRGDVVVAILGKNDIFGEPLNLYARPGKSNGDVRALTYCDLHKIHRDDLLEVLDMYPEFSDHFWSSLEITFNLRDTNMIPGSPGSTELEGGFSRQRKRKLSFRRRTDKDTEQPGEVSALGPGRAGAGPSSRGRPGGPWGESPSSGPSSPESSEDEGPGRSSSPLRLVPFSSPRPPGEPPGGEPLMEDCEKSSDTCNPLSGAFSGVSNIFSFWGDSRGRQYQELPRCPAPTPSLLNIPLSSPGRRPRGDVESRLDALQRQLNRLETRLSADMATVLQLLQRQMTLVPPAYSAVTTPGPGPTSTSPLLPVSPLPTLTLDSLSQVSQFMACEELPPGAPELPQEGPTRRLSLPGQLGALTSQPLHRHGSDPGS", "type": "functional", "details": "read-out: AC50"}, "[2]": {"target": "T3, Alpha-1A adrenergic receptor (Homo sapiens, UniProt P35348)", "T3 sequence (P35348 whole entry)": "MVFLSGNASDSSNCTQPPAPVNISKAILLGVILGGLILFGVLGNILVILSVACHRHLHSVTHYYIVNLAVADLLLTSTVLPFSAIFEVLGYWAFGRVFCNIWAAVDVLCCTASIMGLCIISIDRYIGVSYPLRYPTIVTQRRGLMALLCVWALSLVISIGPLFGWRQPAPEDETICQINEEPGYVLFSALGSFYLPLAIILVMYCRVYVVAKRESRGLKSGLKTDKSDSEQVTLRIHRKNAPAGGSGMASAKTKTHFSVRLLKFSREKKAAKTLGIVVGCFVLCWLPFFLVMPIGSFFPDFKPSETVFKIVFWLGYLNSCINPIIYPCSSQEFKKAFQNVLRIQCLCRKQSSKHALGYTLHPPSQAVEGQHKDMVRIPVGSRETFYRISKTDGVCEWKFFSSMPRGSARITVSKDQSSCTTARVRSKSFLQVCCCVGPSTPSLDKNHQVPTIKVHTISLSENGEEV", "type": "functional, cell-based"}, "[3]": {"target": "T3, Alpha-1A adrenergic receptor", "type": "functional, cell-based", "remark": "listed apart in the source"}, "[4]": {"target": "T4, Alpha-2A adrenergic receptor (Homo sapiens, UniProt P08913)", "T4 sequence (P08913 whole entry)": "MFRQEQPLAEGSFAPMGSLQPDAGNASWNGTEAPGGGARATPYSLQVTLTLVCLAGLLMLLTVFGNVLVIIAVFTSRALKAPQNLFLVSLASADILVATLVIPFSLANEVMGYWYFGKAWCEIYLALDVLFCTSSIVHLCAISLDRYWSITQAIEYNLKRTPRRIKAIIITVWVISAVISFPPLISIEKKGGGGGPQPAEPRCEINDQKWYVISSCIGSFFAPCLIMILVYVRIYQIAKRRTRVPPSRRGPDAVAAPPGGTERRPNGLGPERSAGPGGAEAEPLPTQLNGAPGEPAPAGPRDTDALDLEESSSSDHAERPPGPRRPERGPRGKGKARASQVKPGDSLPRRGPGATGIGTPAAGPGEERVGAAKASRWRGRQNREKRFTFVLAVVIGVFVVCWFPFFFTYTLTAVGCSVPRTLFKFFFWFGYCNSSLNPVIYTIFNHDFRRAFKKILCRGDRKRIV"}, "[5]": {"target": "T5, Muscarinic acetylcholine receptor M2 (Homo sapiens, UniProt P08172)", "T5 sequence (P08172 whole entry)": "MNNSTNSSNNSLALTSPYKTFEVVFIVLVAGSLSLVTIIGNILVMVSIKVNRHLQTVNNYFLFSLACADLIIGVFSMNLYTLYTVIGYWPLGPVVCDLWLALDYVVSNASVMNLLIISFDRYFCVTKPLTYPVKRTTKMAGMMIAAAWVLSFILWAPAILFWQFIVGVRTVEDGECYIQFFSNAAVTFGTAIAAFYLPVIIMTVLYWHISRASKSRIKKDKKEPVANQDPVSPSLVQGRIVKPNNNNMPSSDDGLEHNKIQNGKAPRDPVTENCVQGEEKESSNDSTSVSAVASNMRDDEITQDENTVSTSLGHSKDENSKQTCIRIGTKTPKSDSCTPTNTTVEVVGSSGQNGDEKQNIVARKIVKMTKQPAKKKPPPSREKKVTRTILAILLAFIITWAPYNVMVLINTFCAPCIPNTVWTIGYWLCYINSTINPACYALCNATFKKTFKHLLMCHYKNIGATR"}, "D(1A) dopamine receptor": {"target": "D(1A) dopamine receptor (Homo sapiens, UniProt P21728)"}, "[6]": {"target": "Gamma-aminobutyric acid receptor subunit alpha-1/alpha-2/beta-2/gamma-2 (Homo sapiens, UniProt P14867+P18507+P47869+P47870)", "type": "protein-complex assay"}, "Histamine H3 receptor": {"target": "Histamine H3 receptor (Homo sapiens, UniProt Q9Y5N1)", "sequence (Q9Y5N1 whole entry)": "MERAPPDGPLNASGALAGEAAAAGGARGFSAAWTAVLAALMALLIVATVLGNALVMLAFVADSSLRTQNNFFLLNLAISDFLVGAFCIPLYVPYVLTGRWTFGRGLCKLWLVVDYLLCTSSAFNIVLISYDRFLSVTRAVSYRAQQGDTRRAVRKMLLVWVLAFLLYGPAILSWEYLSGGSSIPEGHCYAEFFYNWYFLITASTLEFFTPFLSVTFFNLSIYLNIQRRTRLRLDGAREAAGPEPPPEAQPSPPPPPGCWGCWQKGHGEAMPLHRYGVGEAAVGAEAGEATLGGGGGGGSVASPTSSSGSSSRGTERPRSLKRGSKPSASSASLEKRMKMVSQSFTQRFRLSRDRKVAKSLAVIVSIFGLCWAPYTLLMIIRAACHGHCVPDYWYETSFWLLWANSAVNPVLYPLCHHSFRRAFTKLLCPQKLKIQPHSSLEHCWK"}, "[7]": {"target": "T6, 5-hydroxytryptamine receptor 1A (Homo sapiens, UniProt P08908)", "T6 sequence (P08908 whole entry)": "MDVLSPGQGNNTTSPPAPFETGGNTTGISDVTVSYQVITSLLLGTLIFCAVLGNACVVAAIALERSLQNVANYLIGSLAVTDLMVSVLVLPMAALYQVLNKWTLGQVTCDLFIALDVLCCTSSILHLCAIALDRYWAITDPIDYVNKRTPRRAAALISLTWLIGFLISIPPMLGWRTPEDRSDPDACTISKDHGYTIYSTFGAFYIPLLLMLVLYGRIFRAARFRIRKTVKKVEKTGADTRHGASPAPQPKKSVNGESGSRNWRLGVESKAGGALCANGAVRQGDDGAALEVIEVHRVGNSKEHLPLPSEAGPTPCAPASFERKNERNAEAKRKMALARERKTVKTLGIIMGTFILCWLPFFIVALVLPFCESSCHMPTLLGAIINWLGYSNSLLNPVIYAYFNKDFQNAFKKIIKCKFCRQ"}, "[8]": {"target": "5-hydroxytryptamine receptor 2B (Homo sapiens, UniProt P41595)", "sequence (P41595 whole entry)": "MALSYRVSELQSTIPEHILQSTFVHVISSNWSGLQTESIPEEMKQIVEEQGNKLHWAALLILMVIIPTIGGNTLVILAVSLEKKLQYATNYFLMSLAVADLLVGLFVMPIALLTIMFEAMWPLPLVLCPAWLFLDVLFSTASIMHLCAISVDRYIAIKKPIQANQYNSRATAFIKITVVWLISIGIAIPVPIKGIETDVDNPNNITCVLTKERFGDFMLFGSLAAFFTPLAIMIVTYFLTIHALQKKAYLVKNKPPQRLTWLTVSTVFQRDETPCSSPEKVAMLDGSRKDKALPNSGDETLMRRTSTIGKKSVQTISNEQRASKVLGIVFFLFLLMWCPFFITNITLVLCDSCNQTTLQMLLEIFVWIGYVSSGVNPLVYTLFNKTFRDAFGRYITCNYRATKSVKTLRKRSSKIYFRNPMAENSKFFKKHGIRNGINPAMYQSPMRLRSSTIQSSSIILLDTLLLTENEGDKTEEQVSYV", "type": "functional, cell-based"}, "[9]": {"target": "T7, Amine oxidase [flavin-containing] A (Homo sapiens, UniProt P21397)", "T7 sequence (P21397 whole entry)": "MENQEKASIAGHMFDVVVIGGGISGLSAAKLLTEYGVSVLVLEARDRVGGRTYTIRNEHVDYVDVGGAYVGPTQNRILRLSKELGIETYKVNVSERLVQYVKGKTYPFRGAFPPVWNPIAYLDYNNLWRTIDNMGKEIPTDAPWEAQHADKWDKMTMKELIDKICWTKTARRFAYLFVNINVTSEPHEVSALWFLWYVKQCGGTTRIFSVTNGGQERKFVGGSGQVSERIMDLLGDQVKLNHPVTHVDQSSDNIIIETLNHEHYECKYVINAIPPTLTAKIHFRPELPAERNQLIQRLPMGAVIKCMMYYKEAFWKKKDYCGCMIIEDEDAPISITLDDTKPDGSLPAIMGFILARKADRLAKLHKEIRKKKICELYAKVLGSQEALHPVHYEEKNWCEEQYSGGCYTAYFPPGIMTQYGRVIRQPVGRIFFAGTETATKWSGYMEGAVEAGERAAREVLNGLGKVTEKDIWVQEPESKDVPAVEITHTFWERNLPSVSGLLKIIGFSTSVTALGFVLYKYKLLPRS", "type": "functional"}, "Mu-type opioid receptor": {"target": "Mu-type opioid receptor (Homo sapiens, UniProt P35372)", "sequence (P35372 whole entry)": "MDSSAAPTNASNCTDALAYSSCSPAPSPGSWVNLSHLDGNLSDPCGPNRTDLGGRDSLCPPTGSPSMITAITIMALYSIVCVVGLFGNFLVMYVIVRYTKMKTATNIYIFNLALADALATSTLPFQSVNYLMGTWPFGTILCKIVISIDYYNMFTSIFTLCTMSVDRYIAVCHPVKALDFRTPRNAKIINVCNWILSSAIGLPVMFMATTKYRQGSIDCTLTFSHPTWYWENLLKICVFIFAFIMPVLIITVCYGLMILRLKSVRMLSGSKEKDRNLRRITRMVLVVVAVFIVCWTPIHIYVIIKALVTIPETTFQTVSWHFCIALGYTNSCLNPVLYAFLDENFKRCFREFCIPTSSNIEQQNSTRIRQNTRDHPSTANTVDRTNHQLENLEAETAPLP"}, "[10]": {"target": "Sodium-dependent noradrenaline transporter (Homo sapiens, UniProt P23975)", "sequence (P23975 whole entry)": "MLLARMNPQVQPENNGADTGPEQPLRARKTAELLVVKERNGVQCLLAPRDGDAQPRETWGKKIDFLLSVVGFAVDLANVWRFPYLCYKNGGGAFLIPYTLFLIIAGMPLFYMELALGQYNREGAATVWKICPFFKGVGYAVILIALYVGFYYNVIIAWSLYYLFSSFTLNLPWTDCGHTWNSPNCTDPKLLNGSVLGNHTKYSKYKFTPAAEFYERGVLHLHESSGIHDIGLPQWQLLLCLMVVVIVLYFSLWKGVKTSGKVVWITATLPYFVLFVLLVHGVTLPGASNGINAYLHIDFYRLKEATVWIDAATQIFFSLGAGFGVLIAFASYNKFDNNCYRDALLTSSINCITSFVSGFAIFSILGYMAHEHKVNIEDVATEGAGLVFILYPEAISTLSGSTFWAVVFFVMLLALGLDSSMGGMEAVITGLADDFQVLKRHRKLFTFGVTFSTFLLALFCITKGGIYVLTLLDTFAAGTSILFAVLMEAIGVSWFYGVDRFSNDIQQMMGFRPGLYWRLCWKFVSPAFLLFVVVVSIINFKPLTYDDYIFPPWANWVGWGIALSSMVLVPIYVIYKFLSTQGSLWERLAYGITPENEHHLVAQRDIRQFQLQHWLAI"}, "[11]": {"target": "Sodium-dependent dopamine transporter (Homo sapiens, UniProt Q01959)", "sequence (Q01959 whole entry)": "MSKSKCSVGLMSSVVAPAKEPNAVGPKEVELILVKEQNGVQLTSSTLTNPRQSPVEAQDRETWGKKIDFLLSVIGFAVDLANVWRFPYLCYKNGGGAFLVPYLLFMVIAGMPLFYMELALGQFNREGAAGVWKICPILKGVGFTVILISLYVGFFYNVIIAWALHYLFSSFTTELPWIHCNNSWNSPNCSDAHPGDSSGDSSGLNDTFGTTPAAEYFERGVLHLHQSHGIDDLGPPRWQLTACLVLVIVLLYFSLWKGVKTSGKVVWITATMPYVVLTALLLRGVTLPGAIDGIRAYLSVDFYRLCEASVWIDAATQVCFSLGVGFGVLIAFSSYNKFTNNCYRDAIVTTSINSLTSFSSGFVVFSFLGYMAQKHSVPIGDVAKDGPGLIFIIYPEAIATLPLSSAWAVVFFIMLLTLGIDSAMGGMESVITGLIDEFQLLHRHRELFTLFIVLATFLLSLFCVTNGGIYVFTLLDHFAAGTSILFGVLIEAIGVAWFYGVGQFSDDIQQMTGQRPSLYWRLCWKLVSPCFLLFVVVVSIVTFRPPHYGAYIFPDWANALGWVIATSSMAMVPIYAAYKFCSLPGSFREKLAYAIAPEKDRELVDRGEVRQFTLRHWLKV"}}}
{"smiles": "O=C(O)CN(CCN(CC(=O)O)CC(=O)O)CC(=O)O", "note": "[EDETIC ACID]", "values": [{"measurement": "AC50", "setting": "Acetylcholinesterase", "result": "> 30", "unit": "µM"}]}
{"smiles": "CNC(=C[N+](=O)[O-])NCCSCc1ccc(CN(C)C)o1", "note": "[RANITIDINE]", "values": [{"measurement": "AC50", "setting": "Adenosine receptor A3", "result": "> 30", "unit": "µM"}]}
{"smiles": "CCCCC[C@H](O)/C=C/[C@H]1[C@H](O)CC(=O)[C@@H]1CCCCCCC(=O)O", "note": "[ALPROSTADIL]", "values": [{"measurement": "AC50", "setting": "Thromboxane A2 receptor", "result": "> 10", "unit": "µM"}]}
{"smiles": "CN(C)CC/C=C1/c2ccccc2Sc2ccc(Cl)cc21", "note": "[CHLORPROTHIXENE]", "values": [{"measurement": "AC50", "setting": "D(3) dopamine receptor", "result": 0.003, "unit": "µM"}]}
{"smiles": "COc1ccc2c3c1O[C@H]1C[C@@H](O)C=C[C@@]31CCN(C)C2", "note": "[GALANTAMINE]", "values": [{"measurement": "AC50", "setting": "[1]", "result": "> 30", "unit": "µM"}]}
{"smiles": "CC[N+](CC)(CC)CCOc1cccc(OCC[N+](CC)(CC)CC)c1OCC[N+](CC)(CC)CC", "note": "[GALLAMINE]", "values": [{"measurement": "AC50", "setting": "Acetylcholinesterase", "result": "> 30", "unit": "µM"}, {"measurement": "AC50", "setting": "[1]", "result": 8.99, "unit": "µM"}]}
{"smiles": "Oc1ccccc1", "note": "[PHENOL]", "values": [{"measurement": "AC50", "setting": "Acetylcholinesterase", "result": "> 30", "unit": "µM"}, {"measurement": "AC50", "setting": "[2]", "result": "> 30", "unit": "µM"}, {"measurement": "AC50", "setting": "[3]", "result": "> 30", "unit": "µM"}, {"measurement": "AC50", "setting": "[4]", "result": "> 30", "unit": "µM"}, {"measurement": "AC50", "setting": "[5]", "result": "> 30", "unit": "µM"}, {"measurement": "AC50", "setting": "D(1A) dopamine receptor", "result": "> 30", "unit": "µM"}, {"measurement": "AC50", "setting": "D(3) dopamine receptor", "result": "> 30", "unit": "µM"}, {"measurement": "AC50", "setting": "[6]", "result": "> 30", "unit": "µM"}, {"measurement": "AC50", "setting": "Histamine H3 receptor", "result": "> 30", "unit": "µM"}, {"measurement": "AC50", "setting": "[7]", "result": "> 30", "unit": "µM"}, {"measurement": "AC50", "setting": "[8]", "result": "> 30", "unit": "µM"}, {"measurement": "AC50", "setting": "[9]", "result": "> 30", "unit": "µM"}, {"measurement": "AC50", "setting": "Mu-type opioid receptor", "result": "> 30", "unit": "µM"}, {"measurement": "AC50", "setting": "[10]", "result": "> 30", "unit": "µM"}, {"measurement": "AC50", "setting": "[11]", "result": "> 30", "unit": "µM"}]}
